Data taken from article PMC11952846, “The sterol-regulating human ARV1 binds cholesterol and phospholipids through its conserved ARV1 homology domain” (The Journal of Biological Chemistry, 2025).
Positions count from the first letter of the chain named. pEC50: −log10 of the molar value.

What was measured:
GST-Annexin A2 = GST-Annexin A2 (Homo sapiens, UniProt P07355); experiment: Lipid overlay far western (positive control protein); format: binding
Experimental: (§1) Lipid overlays were blocked in TBST-BSA (100 mM Tris–HCl buffer, pH 7.5, 150 mM NaCl, 0.5% Tween 20, 3% bovine serum albumin) for 1 h and subsequently washed eight separate times with TBST for 2 min each. Overlays were incubated with 0.5 μg/ml GST-tagged or 6XHIS-tagged proteins in 3% TBST-BSA buffer containing 0.1% Triton X-100, for 1 h at room temperature and washed as above. Overlays were incubated with either anti-GST or anti-6XHIS monoclonal antibodies at a 1:1000 dilution in TBST-BSA for 1 h at room temperature followed by eight washes in TBST. Overlays were visualized using Immobilon Western Chemiluminescent horseradish peroxidase substrate and protein–lipid interaction was detected using a GE ImageQuant LAS 3000 imager.

[1] = target: T1, GST-ARV1-N98 (N-terminal 98 amino acids, AHD) (Homo sapiens, UniProt Q9H2C2); experiment: Protein-lipid liposome binding assay (ultracentrifugation, Western blot); conditions: protein detected in final pellet
T1 construct: Expresses amino-terminal 98 amino acids of ARV1; made in house; host or cells: E. coli BL21 (pGEX-4T1)
T1 sequence (Q9H2C2 1-98): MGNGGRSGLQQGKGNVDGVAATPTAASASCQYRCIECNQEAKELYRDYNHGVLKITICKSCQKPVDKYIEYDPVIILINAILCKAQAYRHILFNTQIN
Experimental: Lyophilized lipids were reconstituted in chloroform at 10 mg/ml and stored in glass tubes with Teflon tops at −20 °C until use. One milliliter of 10 mg/ml stock was dried under a stream of nitrogen in a glass tube until a lipid cake/film was formed. The lipid cake was then rehydrated in BLT rehydration buffer (5 mM Tris/HCl, pH 7.4, containing 150 mM NaCl) to a concentration of 1 mg/ml. Lipid suspensions were subjected to three freeze/thaw cycles using a dry ice ethanol/[…] water bath to encapsulate the buffer and improve liposome formation. The suspension and lipid extruder were equilibrated to temperature for 10 min and liposomes were extruded using […] polycarbonate membranes (Avestin). Liposomes were made by mixing stock lipid PL (1 mg/ml) with PC (10 mg/ml).
Cholesterol composition liposomes were rehydrated with cholesterol rehydration buffer (10 mM Hepes, pH 7.4, containing 150 mM KCl).
Liposomes were serial diluted in floatation buffer (100 mM NaCl, 2 mM EDTA, pH 5.5) to a final concentration of 0.1 mg/ml. Nine hundred microliters of liposome solution was placed in clear ultracentrifuge tubes and mixed with 100 μl of 0.01 μg/ml of protein. The liposome/protein solution was incubated at room temperature for 1 h with occasional shaking. An initial 100 μl of liposome/protein solution (liposomes) was removed and the remaining 900 μl was centrifuged at 50,000g for 20 min at 4 °C. The pellet was resuspended in 800 μl of fresh floatation buffer, centrifuged as above, and 800 μl of supernatant was removed (wash 1). This was repeated a second time and again 800 μl of supernatant was removed (wash 2). The final pellet was resuspended in 100 μl of floatation buffer plus SDS treatment buffer (pellet). Thirty microliters of each fraction was run on a 15% SDS-PAGE gel and probed with an anti-GST monoclonal antibody at a 1:1500 dilution.

GST-ARV1-N50 = target: T2, GST-ARV1-N50 (Homo sapiens, UniProt Q9H2C2); experiment: Lipid overlay far western, truncation; format: binding; conditions: compared to ARV1-N98 / ARV1-N70
T2 construct: Expresses amino-terminal 50 amino acids of ARV1; made in house; host or cells: E. coli BL21 (pGEX-4T1)
T2 sequence (Q9H2C2 1-50): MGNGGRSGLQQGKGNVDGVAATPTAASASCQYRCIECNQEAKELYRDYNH
Experimental: as §1

6XHIS-N98 K67A = target: T3, 6XHIS-N98 K67A (Homo sapiens, UniProt Q9H2C2, K67A); experiment: HTRF phospholipid lipid-binding assay, mutant; parameters: key: NC, no change; conditions: biotinylated lipid; NC = no change vs N98
T3 construct: made in house; host or cells: E. coli BL21
T3 sequence (Q9H2C2 1-98 K67A): T1 sequence (Q9H2C2 1-98) with K67A
From the text: (§2) An HTRF assay was developed for 6XHIS-ARV1-N98-lipid binding. HTRF measures analyte interactions through fluorescence resonance energy transfer technology and time-resolved measurements ([53]). The interaction between two molecules can be quantified through binding each individual molecule involved with a fluorescent label and then analyzing the transfer of energy between the initial donor fluorophore and the secondary acceptor fluorophore. Following excitation of the first fluorophore, transfer of energy can only occur if the molecules bound with the fluorescent tags are within proximity to each other.
(§3) Assays were plated in 384-well flat bottom microplates (Greiner Bio, catalog #784075-25). Proteins were diluted using binding buffer (20 mM Hepes buffer, pH 7.2, containing 0.1% BSA, and 0.01% Tween20) to a stock concentration of 0.75 μM, and biotinylated phospholipids were dispensed, dried under nitrogen gas, and resuspended in binding buffer to a stock concentration of 50 μM. The lipid stock solution was diluted by 1:2 for a series of 12 serial dilutions. For the assay, in sequential order, 6 μl of binding buffer was loaded into the plate in triplicate for each dilution of phospholipid. To this, 2 μl of 0.75 μM 6XHIS-ARV1-N98 was added, followed by 2 μl of biotinylated phospholipid. Immediately following each addition loaded into the plate, the plate was centrifuged for 1 min at 1000 rpm to bring the contents to the bottom of the well. Next, detection antibodies were mixed with detection buffer (20 mM Hepes buffer, pH 8.5, containing 0.01% BSA and 200 mM KF). Antibodies were a MAb anti-6XHIS Europium kryptate-conjugated D1 fluorescent antibody (Cisbio, #61HISKLA) and Streptavidin-conjugated d2 fluorescent antibody (Cisbio, #610SADLA). For each 1000 μl of detection buffer, 5 μl of each antibody was added just prior to loading 10 μl into each well. The plate was again centrifuged for 1 min at 1000 rpm and stored in a sealed container overnight, in the dark. Plates were read on a PerkinElmer EnVision Xcite Multilabel plate reader.
Curves were logarithmically transformed and normalized to a common scale before being fit with a nonlinear regression of the agonist against the normalized response. This generated half maximal effective concentration values (EC50; M) that could then be compared between different lipids. In the context of our study, EC50 values were defined as a measure of protein sensitivity to binding to a particular lipid within a dose response curve. For phospholipid competition analysis, IC50; M values were determined using nonlinear regression of the inhibitor against normalized response.

6XHIS-ARV1-N98 = target: T4, 6XHIS-ARV1-N98 (Homo sapiens, UniProt Q9H2C2); experiment: HTRF phospholipid lipid-binding assay; conditions: biotinylated lipid (Bio-PL) titrated, 0.75 μM protein; lipid labels mean the biotinylated lipids
T4 construct: made in house; host or cells: E. coli BL21
T4 sequence (Q9H2C2 1-98): T1 sequence (Q9H2C2 1-98)
From the text: as §2
as §3, with “Antibodies were a MAb anti-6XHIS Europium kryptate-conjugated D1 fluorescent antibody (Cisbio, #61HISKLA) and Streptavidin-conjugated d2 fluorescent antibody (Cisbio, #610SADLA). For each 1000 μl of detection buffer, 5 μl of each antibody was added just prior to loading 10 μl into each well. The plate was again centrifuged for 1 min at 1000 rpm and stored in a sealed container overnight, in the dark.” left out
Curves were logarithmically transformed and normalized to a common scale before being fit with a nonlinear regression of the agonist against the normalized response. […] For phospholipid competition analysis, IC50; M values were determined using nonlinear regression of the inhibitor against normalized response.

[2] = lipid-embedded membrane strips, incl. sphingolipid strip

Chain of GST-Annexin A2 (P07355 whole entry): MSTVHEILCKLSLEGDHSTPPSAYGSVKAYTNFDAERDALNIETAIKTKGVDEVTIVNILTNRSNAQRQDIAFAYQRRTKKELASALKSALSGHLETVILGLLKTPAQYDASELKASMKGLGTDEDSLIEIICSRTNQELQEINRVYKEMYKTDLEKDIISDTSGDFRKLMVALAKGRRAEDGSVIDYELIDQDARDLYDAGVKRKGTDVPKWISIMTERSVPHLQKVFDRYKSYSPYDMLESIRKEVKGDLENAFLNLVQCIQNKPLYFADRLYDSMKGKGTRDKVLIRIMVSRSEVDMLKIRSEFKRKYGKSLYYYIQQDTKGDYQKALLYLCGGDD

Row | Compound | lipid-protein interaction (GST-Annexin A2; [2]) | binding to PC:PL liposomes [1] | change of lipid-protein interaction (GST-ARV1-N50) | Bio-PL, EC50, M ± S.D. (6XHIS-N98 K67A) | lipid-protein interaction (GST-Annexin A2; PIP lipid membrane strip, 100pmol-1.56pmol per spot) | pEC50 (6XHIS-ARV1-N98)
1 | CCCCC/C=C\C/C=C\CCCCCCCC(=O)OC[C@H](COP(=O)(O)OCC(O)COP(=O)(O)OC[C@@H](COC(=O)CCCCCCC/C=C\C/C=C\CCCCC)OC(=O)CCCCCCC/C=C\C/C=C\CCCCC)OC(=O)CCCCCCC/C=C\C/C=C\CCCCC (some centres unmarked) [CL, cardiolipin] | interacted | bound | eliminated |  |  | 
2 | CCCCCCCCCCCCCCCC(=O)OC[C@H](COP(=O)(O)O)OC(=O)CCCCCCCCCCCCCCC [PA, phosphatidic acid] | weakly | not |  | NC |  | 
3 | CCCCCCCC/C=C\CCCCCCCC(=O)OC[C@H](COP(=O)(O)OCC(O)CO)OC(=O)CCCCCCC/C=C\CCCCCCCC (some centres unmarked) [PG, phosphatidylglycerol] |  | bound | eliminated | reduced PG binding |  | 
4 | CCCCCCCCCCCCCCCCCC(=O)OC[C@H](COP(=O)(O)OC[C@H](N)C(=O)O)OC(=O)CCCCCCCCCCCCCCCCC [PS, phosphatidylserine] | interacted | bound | restored | NC |  | 
5 | CCCCCC(=O)O[C@H](COC(=O)CCCCCNC(=O)CCCC[C@@H]1SC[C@@H]2NC(=O)N[C@@H]21)COP(=O)(O)O[C@H]1[C@H](O)[C@@H](O)[C@H](OP(=O)(O)O)[C@@H](O)[C@H]1O [reference compound] | interacted |  |  | weakened | strongest interactions | 
6 | phosphatidylcholine [PC] |  |  |  | NC |  | 5.96
7 | phosphatidylethanolamine [PE] |  | Neither |  |  |  | 5.28
